Reference: publication PMC5996347, “2-Mercapto-Quinazolinones as Inhibitors of Type II NADH Dehydrogenase and Mycobacterium tuberculosis: Structure–Activity Relationships, Mechanism of Action and Absorption, Distribution, Metabolism, and Excretion Characterization” (ACS Infectious Diseases, 2018)
Converted amounts (≈) assume the structure as drawn.

Legend:
[1] = physchem; type: physicochemical; details: for solubility kinetic: water, kinetic from dmso stock
Protocol: The aqueous solubility of the test compounds was measured using laser nephelometry. Compounds were subject to serial dilution from 10 to 0.5 mM in DMSO. An aliquot was then mixed with Milli-Q water to obtain an aqueous dilution plate with a final concentration range of 250–12 μM, with a final DMSO concentration of 2.5%. Triplicate aliquots were transferred to a flat bottomed polystyrene plate which was immediately read on the NEPHELOstar (BMG Lab Technologies). The amount of laser scatter caused by insoluble particulates (relative nephelometry units, RNU) was plotted against compound concentration using a segmental regression fit, with the point of inflection being quoted as the compounds aqueous solubility (μM).

[2] = test system: M. tuberculosis H37Rv; test: microbe, parasite or virus in culture; type: cell-based; details: Mycobacterium tuberculosis, read-out: 7H9-ADC MIC
[3] = type: in vitro ADME; details: female, CD1, mouse, 0.5 μM, pH 7.4
Protocol: Test compound (0.5 μM) was incubated with female CD1 mouse liver microsomes (Xenotech LLC; 0.5 mg/mL, 50 mM potassium phosphate buffer, pH 7.4), and the reaction started with addition of excess NADPH (8 mg/mL, 50 mM potassium phosphate buffer, pH 7.4). Immediately, at time zero, and then at 3, 6, 9, 15, and 30 min, an aliquot (50 μL) of the incubation mixture was removed and mixed with acetonitrile (100 μL) to stop the reaction. Internal standard was added to all samples; the samples were centrifuged to sediment precipitated protein, and the plates were then sealed prior to UPLC-MS/MS analysis using a Quattro Premier XE (Waters Corporation, USA). XLfit (IDBS, UK) was used to calculate the exponential decay and consequently the rate constant (k) from the ratio of peak area of test compound to internal standard at each time point. The rate of intrinsic clearance (Cli) of each test compound was then calculated using the following calculation. [drawing 1] where V (mL/mg protein) is the incubation volume/mg protein added and microsomal protein yield is taken as 52.5 mg protein/g liver. Verapamil (0.5 μM) was used as a positive control to confirm acceptable assay performance.

[4] = test system: M. tuberculosis H37Rv; test: H37Rv MIC in GAST medium; type: cell-based, Mycobacterium tuberculosis; details: Mycobacterium tuberculosis, H37RV; read-out: GAST MIC
[5] = target: T1, recombinant MBP-MtNdh (MTb NDH-2) (Mycobacterium tuberculosis, UniProt P95160); test: Ndh activity assay (NADH oxidation at 340 nm); type: biochemical; details: NADH 250 μM, Q2 40 μM; mean ± SD, Figure 6 inset; read-out: IC50 against MBP-MtNdh
T1 construct: The ORF corresponding to Rv1854c was codon optimized for E. coli; made in house; host or cells: E. coli BL21 (DE3) pLysS

[6] = Calculated properties (StarDrop)

T1 sequence (P95160 whole entry): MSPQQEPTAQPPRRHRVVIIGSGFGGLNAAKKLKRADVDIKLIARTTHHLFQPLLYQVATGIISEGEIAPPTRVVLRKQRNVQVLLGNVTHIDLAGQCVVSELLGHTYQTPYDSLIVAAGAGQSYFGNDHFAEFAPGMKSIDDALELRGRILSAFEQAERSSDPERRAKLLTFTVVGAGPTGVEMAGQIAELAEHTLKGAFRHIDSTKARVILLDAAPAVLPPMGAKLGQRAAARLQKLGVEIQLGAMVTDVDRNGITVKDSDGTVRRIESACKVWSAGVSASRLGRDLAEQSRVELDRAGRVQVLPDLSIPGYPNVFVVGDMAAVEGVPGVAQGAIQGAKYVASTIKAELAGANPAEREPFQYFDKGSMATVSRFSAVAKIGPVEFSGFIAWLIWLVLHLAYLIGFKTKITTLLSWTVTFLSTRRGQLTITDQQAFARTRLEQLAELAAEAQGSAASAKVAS

| Compound | Kinetic solubility [1] | MIC [2] | Microsomal Cli, mouse [3] | MIC [4] | solubility kinetic [1] | IC50 [5] | PFI [6] |
| --- | --- | --- | --- | --- | --- | --- | --- |
| CN(C(=O)CSc1nc2ccccc2c(=O)[nH]1)C1CCCCC1 [Compound 14, N-Cyclohexyl-N-methyl-2-((4-oxo-3,4-dihydroquinazolin-2-yl)thio)acetamide] | 250 µM | 50 µM (≈ 16.6 µg/mL) | 13 mL/min/g | 50 µM (≈ 16.6 µg/mL) |  |  |  |
| Cc1nc(SCC(=O)NC2CCCCC2)nc(O)c1C [Compound 25, N-Cyclohexyl-2-((4,5-dimethyl-6-oxo-1,6-dihydropyrimidin-2-yl)thio)acetamide] |  | 12.5 µM (≈ 3.69 µg/mL) | 1.1 mL/min/g | 6.3 µM (≈ 1.86 µg/mL) | 250 µM (≈ 73.9 µg/mL) |  |  |
| O=C(CSc1nc2ccccc2c(=O)[nH]1)NC1CCC1 [Compound 6, N-Cyclobutyl-2-((4-oxo-3,4-dihydroquinazolin-2-yl)thio)acetamide] |  | 1.6 µM (≈ 0.463 µg/mL) | 1.8 mL/min/g | 1.6 µM (≈ 0.463 µg/mL) | 219 µM (≈ 63.4 µg/mL) |  |  |
| O=C(COc1nc2ccccc2c(=O)[nH]1)NC1CCCCC1 [Compound 18, N-Cyclohexyl-2-((4-oxo-3,4-dihydroquinazolin-2-yl)oxy)acetamide] |  | 50 µM (≈ 15.1 µg/mL) |  | 25 µM (≈ 7.53 µg/mL) |  |  |  |
| O=C(CSc1nc2ccc(F)cc2c(=O)[nH]1)NC1CCC(F)(F)CC1 [Compound 26, N-(4,4-Difluorocyclohexyl)-2-((6-fluoro-4-oxo-3,4-dihydroquinazolin-2-yl)thio)acetamide] |  | 0.8 µM (≈ 0.297 µg/mL) | 2.2 mL/min/g | 0.6 µM (≈ 0.223 µg/mL) | 55 µM (≈ 20.4 µg/mL) |  |  |
| Cn1c(SCC(=O)NC2CCCCC2)nc2ccccc2c1=O [Compound 20, N-Cyclohexyl-2-((3-methyl-4-oxo-3,4-dihydroquinazolin-2-yl)thio)acetamide] |  | 50 µM (≈ 16.6 µg/mL) | 11 mL/min/g | 50 µM (≈ 16.6 µg/mL) |  |  |  |
| O=C(CSc1nc2ccccc2c(=O)[nH]1)NC1CCCC(F)(F)C1 (stereo not shown) [Compound 9, N-(3,3-Difluorocyclohexyl)-2-((4-oxo-3,4-dihydroquinazolin-2-yl)thio)acetamide] |  | 4.7 µM (≈ 1.66 µg/mL) | 2.9 mL/min/g | 4.7 µM (≈ 1.66 µg/mL) | 187 µM (≈ 66.1 µg/mL) |  |  |
| CC(Sc1nc2ccccc2c(=O)[nH]1)C(=O)N(C)C1CCCCC1 (stereo not shown) [Compound 16, N-Cyclohexyl-N-methyl-2-((4-oxo-3,4-dihydroquinazolin-2-yl)thio)propanamide] |  | 50 µM (≈ 17.3 µg/mL) | 50 mL/min/g | 50 µM (≈ 17.3 µg/mL) | 250 µM (≈ 86.4 µg/mL) |  |  |
| O=C(CSc1nc2cnccc2c(=O)[nH]1)NC1CCC(F)(F)CC1 [Compound 27, N-(4,4-Difluorocyclohexyl)-2-((4-oxo-3,4-dihydropyrido[3,4-d]pyrimidin-2-yl)thio)acetamide] |  | 2.5 µM (≈ 0.886 µg/mL) | 1.6 mL/min/g | 9.4 µM (≈ 3.33 µg/mL) | 250 µM (≈ 88.6 µg/mL) |  |  |
| O=C(CSc1ncc2ccccc2n1)NC1CCCCC1 [Compound 21, N-Cyclohexyl-2-(quinazolin-2-ylthio)acetamide] |  | 50 µM (≈ 15.1 µg/mL) |  | 50 µM (≈ 15.1 µg/mL) |  |  |  |
| Cc1csc2nc(SCC(=O)NC3CCCCC3)[nH]c(=O)c12 [Compound 3] |  | > 50 µM |  | 43 µM (≈ 14.5 µg/mL) |  | 210 ± 25 nM | 4.7 |
| O=C(CSc1nc2ccccc2c(=O)[nH]1)NCC1CCCCC1 [Compound 10, N-(Cyclohexylmethyl)-2-((4-oxo-3,4-dihydroquinazolin-2-yl)thio)acetamide] |  | 0.3 µM (≈ 0.0994 µg/mL) | 5.9 mL/min/g | 0.2 µM (≈ 0.0663 µg/mL) |  |  |  |
| O=C(CNc1nc2ccccc2c(=O)[nH]1)NC1CCCCC1 [Compound 17, N-Cyclohexyl-2-((4-oxo-3,4-dihydroquinazolin-2-yl)amino)acetamide] |  | 50 µM (≈ 15 µg/mL) | 2.1 mL/min/g | 50 µM (≈ 15 µg/mL) | 250 µM (≈ 75.1 µg/mL) |  |  |
| O=C(CSc1nc2c(c(=O)[nH]1)CCC2)NC1CCCCC1 [Compound 24, N-Cyclohexyl-2-((4-oxo-4,5,6,7-tetrahydro-3H-cyclopenta[d]pyrimidin-2-yl)thio)acetamide] |  | 1.2 µM (≈ 0.369 µg/mL) | 1.2 mL/min/g | 1.6 µM (≈ 0.492 µg/mL) | 250 µM (≈ 76.9 µg/mL) |  |  |
| O=C(CCc1nc2ccccc2c(=O)[nH]1)NC1CCCCC1 [Compound 19, N-Cyclohexyl-3-(4-oxo-3,4-dihydroquinazolin-2-yl)propanamide] |  | 50 µM (≈ 15 µg/mL) | 1.6 mL/min/g | 50 µM (≈ 15 µg/mL) | 250 µM (≈ 74.8 µg/mL) |  |  |
| O=C(CSc1nc2ccccc2c(=O)[nH]1)NC1CCCCCC1 [Compound 4, N-Cycloheptyl-2-((4-oxo-3,4-dihydroquinazolin-2-yl)thio)acetamide] |  | 0.6 µM (≈ 0.199 µg/mL) | 6.4 mL/min/g | 0.3 µM (≈ 0.0994 µg/mL) | 39 µM (≈ 12.9 µg/mL) |  |  |
| O=C(CSc1nc2ccccc2c(=O)[nH]1)NC1CCCC1 [Compound 5, N-Cyclopentyl-2-((4-oxo-3,4-dihydroquinazolin-2-yl)thio)acetamide] |  | 1.8 µM (≈ 0.546 µg/mL) | 2.5 mL/min/g | 1 µM (≈ 0.303 µg/mL) | 101 µM (≈ 30.6 µg/mL) |  |  |
| Nc1nc(SCC(=O)NC2CCCCC2)nc2ccccc12 [Compound 22, 2-((4-Aminoquinazolin-2-yl)thio)-N-cyclohexylacetamide] |  | 50 µM (≈ 15.8 µg/mL) |  | 50 µM (≈ 15.8 µg/mL) |  |  |  |
| CC(Sc1nc2ccccc2c(=O)[nH]1)C(=O)NC1CCCCC1 (stereo not shown) [Compound 15, N-Cyclohexyl-2-((4-oxo-3,4-dihydroquinazolin-2-yl)thio)propanamide] | 250 µM | 50 µM (≈ 16.6 µg/mL) | 7.5 mL/min/g | 50 µM (≈ 16.6 µg/mL) |  |  |  |
| O=C(CSc1nc2c(c(=O)[nH]1)CCCC2)NC1CCCCC1 [Compound 23, N-Cyclohexyl-2-((4-oxo-3,4,5,6,7,8-hexahydroquinazolin-2-yl)thio)acetamide] |  | 1.6 µM (≈ 0.514 µg/mL) | 6.6 mL/min/g | 1.2 µM (≈ 0.386 µg/mL) | 250 µM (≈ 80.4 µg/mL) |  |  |
| O=C(CSc1nc2ccccc2c(=O)[nH]1)NC1CCCCC1(F)F (stereo not shown) [Compound 8, N-(2,2-Difluorocyclohexyl)-2-((4-oxo-3,4-dihydroquinazolin-2-yl)thio)acetamide] |  | 12.5 µM (≈ 4.42 µg/mL) | 2.3 mL/min/g | 9.4 µM (≈ 3.32 µg/mL) | 219 µM (≈ 77.4 µg/mL) |  |  |
